Test results published in US20220183287A1, “METHODS FOR KILLING PESTS” (The United States of America, as represented by the …, priority 2020, published 2022).
Marks after values point to notes of the source that are not given here.

Tests used:
M. incognita eggs = assay: Microwell assay: eggs immersed in compounds, hatch and activity of hatched J2; format: in vivo, Meloidogyne incognita; details: 0.1%; for decrease in total hatch compared with the Tween control: Day 7; for % Active Day 2 / % Active Day 5 / % Active Day 7: J2 hatched from immersed eggs; for Hatch Day 2 / Hatch Day 5 / Hatch Day 7: hatched J2 per well, about 35 eggs per well
Procedure: (§1) All chemicals were used without further purification.
(§2) These are reported as 0.1% herein.
(§3) The nematodes were then incubated at 26° C. […] Two trials were conducted for each assay.
(§4) The assumptions of the model were checked.

[1] = tested on: H. glycines second-stage juveniles; assay: Microwell assay: previously hatched J2 immersed in compounds, activity and viability; details: for reduction in % viable J2 compared with the Tween control: Day 3 following water rinse; for % Active Day 1 / % Active Day 2: previously hatched J2 in aqueous solution; for viability at 0.1 %: Heterodera glycines, 72 h, read-out: % Viable Day 3 rinsed
Procedure: The isolate of H. glycines race 3, originally isolated in Maryland, was maintained on soybean (Glycine max cv. ‘Essex’). As previously described (Wen, Y., et al. Plant Disease, 103: 2191-2198 (2019)), the roots were gently rubbed in water to dislodge cysts and mature females. The egg suspensions were then poured through nested sieves (#20 over /#60; pore sizes 850 μm and 250 μm diam., respectively) into a 454 g/liter sucrose solution. After 15 min, the cysts and females and cysts that floated to the top were collected, rinsed in water, and crushed with a rubber stopper on a #60 sieve (250-μm diam. pore size) that was partially submerged in distilled water. The egg suspension was washed through nested #230 over #500 sieves (pore sizes 63 μm and 25-μm diam., respectively). The eggs were collected in distilled water, and J2 hatched as described above.
(§5) Compounds for the studies were purchased from three different companies: methyl benzoate, CAS Number 93-58-3, ≥99% purity; Tween 20, CAS Number: 9005-64-5; Tween 80, CAS Number: 9005-65-6; ethyl benzoate, CAS Number: 93-89-0, natural, ≥99% purity, FCC, FG; vinyl benzoate, CAS Number: 769-78-8, ≥99% purity; n-propyl benzoate, CAS Number: 2315-68-6, 99% purity; n-butyl benzoate, CAS Number: 136-60-7, 99% purity; benzyl benzoate, CAS Number: 120-51-4, natural, ≥99% purity, FCC, FG; methyl 2-methylbenzoate, CAS Number: 89-71-4, 99% purity; methyl 2-chlorobenzoate, CAS Number: 610-96-8, ≥98% purity; methyl 2-methoxybenzoate, CAS Number: 606-45-1, 99% purity and methyl 2-nitrobenzoate, CAS Number: 606-27-9, 98% purity were purchased from Sigma-Aldrich (St. Louis, Mo.). Compounds, iso-butyl benzoate, CAS Number 120-50-3, >98% purity; n-pentyl benzoate, CAS Number: 2049-96-9, ≥98% purity; and n-hexyl benzoate, CAS Number: 6789-88-4, ≥98% purity were purchased from Alfa Aesar (Tewksbury, Mass.). The compounds methyl 3-methoxybenzoate (methyl m-anisate), CAS Number: 5368-81-0; 97% and methyl 3-methylbenzoate (methyl m-toluate), CAS Number: 99-36-5, 97% purity were purchased from TCI America (Portland, Oreg.). All chemicals were used without further purification. Deionized water (DI) containing 1% emulsifier (v/v), Tween 20 and Tween 80, at 1:1 ratio was used to make different VOCs (volatile organic compounds) water solutions and also used as blank control.
(§6) For tests with individual compounds, the concentration of each compound was 0.1% before placement into wells; the final concentration in the wells was 0.095% after addition to eggs or J2 suspended in water. These are reported as 0.1% herein. An exception was Trial 2, M. incognita J2 activity and viability (Table 2): the final concentration was 0.1% after placement in wells. Low concentrations were selected for assays of combined compounds to determine if the combinations would increase nematotoxicity.
(§7) Laboratory assays were conducted in 96-well polystyrene plates following general procedures described in Wen et al. (2019). Each well received approximately 35 J2 (for previously hatched J2 assays) or 35 eggs that each contained either a first-stage juvenile (J1) or a J2. The plates were covered with plastic adhesive sealing film (Excel Scientific, Inc., Victorville Calif.) and then with the plate lids. Parafilm (Bemis, Neenah, Wis.) was used to seal the plates. The nematodes were then incubated at 26° C. […] Following the counts on Day 2, the treatments were removed and the J2 rinsed twice with SDW and incubated in the second rinse. […] Two trials were conducted for each assay.
Statistical analyses: The data were analyzed as either a general linear model using JMP or a generalized linear model for the best distribution to fit the residual using Proc Glimmix (Sas Institute). The assumptions of the model were checked. If not met, then appropriate statistical techniques were used so that data could met the assumptions of the models. In Sas, mean comparisons were done with Sidak adjusted p-values to hold the experiment-wise error at 0.05.

[2] = tested on: M. incognita second-stage juveniles; assay: as above; details: for % Active Day 1 / % Active Day 2: 0.1%, previously hatched J2 in aqueous solution; for viability at 0.1 % / mortality at 0.1 %: Meloidogyne incognita, 72 h; for viability at 0.1 %: read-out: % Viable Day 3 rinsed; for mortality at 0.1 %: read-out: nonviable (killed) J2
Procedure: Nematode cultures: As described in Meyer et al. (Meyer, S. L. F., et al., Nematropica, 46: 85-96 (2016)), M. incognita race 1 (originally isolated in Maryland) was maintained in a greenhouse (24° to 29° C.; natural and supplemental lighting combined for a 16-h daylength) on susceptible cayenne pepper (Capsicum annuum) TA-136′ plants. All greenhouse experiments described herein were conducted under the same conditions. Two to three months after pepper plant inoculation, egg masses were picked from roots. Eggs were separated by 5 min immersion in 0.6% sodium hypochlorite, followed by a rinse in sterile distilled water (SDW). To collect second-stage juveniles (J2) for microwell assays, the surface-sterilized eggs were placed in a hatching chamber (Spectra/Mesh Nylon Filter, openings 25-μm-diam.; Spectrum Laboratories Inc., Rancho Dominguez, Calif.) set in an autoclaved dish that was placed on a rotary shaker for 3 days at 35 rpm. For some M. incognita and H. glycines assays, 25 or […] kanamycin monosulfate (Phytotechnology Laboratories, Shawnee Mission, Kans.) was added to the hatching chamber to prevent growth of bacteria. The collected J2 were then rinsed with water to remove the kanamycin monosulfate.
as §5, §6, §7

Heterodera glycines eggs = assay: Microwell assay: eggs immersed in compounds, hatch and activity of hatched J2; format: in vivo; details: 0.1%; for % Active Day 2 / % Active Day 5 / % Active Day 7: J2 hatched from immersed eggs; for Hatch Day 2 / Hatch Day 5 / Hatch Day 7: hatched J2 per well, about 35 eggs per well; for pest or weed control at 0.1 %: Heterodera glycines, 168 h, read-out: egg hatch suppression compared with the Tween control
Procedure: as §1, §2, §3, §4

Row | SMILES | decrease in total hatch compared with the Tween control (M. incognita eggs) | % Active Day 2 (M. incognita eggs) | % Active Day 5 (M. incognita eggs) | % Active Day 7 (M. incognita eggs) | Hatch Day 2 (M. incognita eggs) | Hatch Day 5 (M. incognita eggs) | Hatch Day 7 (M. incognita eggs) | % Active Day 1 ([1]; 0.1%) | % Active Day 2 ([1]; 0.1%) | viability at 0.1 % [1] [%] | % Active Day 1 [2] | % Active Day 2 [2] | viability at 0.1 % [2] [%] | mortality at 0.1 % [2] [%] | % Active Day 2 (Heterodera glycines eggs) | % Active Day 5 (Heterodera glycines eggs) | % Active Day 7 (Heterodera glycines eggs) | Hatch Day 2 (Heterodera glycines eggs) | Hatch Day 5 (Heterodera glycines eggs) | Hatch Day 7 (Heterodera glycines eggs) | other results
1 | COC(=O)c1ccccc1Cl [M2CB, Methyl 2-chlorobenzoate] | ~95% | 0 ^c % | 0 e % | 0 ^c % | 1.7 ^d | 1.7 ^e | 2.3 ^e | 0.46 ^e % | 1.6 ^g % | 0.5 | 0 ^f % | 0 ^d % | 0 | 100 | 0 ^e % | 6.4 ^de % | 0 ^d % | 5.4 ^cd | 5.8 ^cd | 5.5 ^cd | reduction in % viable J2 compared with the Tween control ([1]; 0.1%): 99%; inactive J2 that hatched from the eggs (Heterodera glycines eggs; by Day 7): 100%; pest or weed control at 0.1 % (Heterodera glycines eggs; Day 7): 64 to 80%
2 | COC(=O)c1ccccc1C [M2MB, Methyl 2-methylbenzoate] | – | 45.3 ^ab % | 11.8 ^d % | 17.4 ^b % | 4.3 ^cd | 6.6 ^bcd | 7.6 ^cd | 50.4 ^c % | 52.7 ^bc % | 46.4 | 2.5 ^e % | 0 ^d % | 0 | 100 | 23.8 ^cd % | 24.3 ^cde % | 30.9 ^ab % | 6.6 ^bcd | 7.6 ^bcd | 7.4 ^bcd | –
3 | COC(=O)c1ccccc1OC [M2MOB, Methyl 2-methoxybenzoate] | – | 35.2 ^ab % | 32.5 ^cd % | 13.9 ^b % | 3.4 ^cd | 8.4 ^bc | 13.9 ^bc | 73.6 ^ab % | 66.3 ^ab % | 59.6 | 5.2 ^de % | 5.9 ^c % | 36.8 | – | 48.2 ^bc % | 43.0 ^abc % | 19.1 ^bc % | 8.7 ^abcd | 11.3 ^bc | 11.6 ^abc | decrease in % active J2 compared with the Tween control (M. incognita eggs; J2 hatched from eggs, 7-day incubation): 86%; % Viable Day 3 rinsed ([1]; 0.1%, after Day 2 water rinse): did not cause significant reductions; nonviable (killed) J2 ([2]; in vivo): killed more than half
4 | COC(=O)c1ccccc1[N+](=O)[O-] [M2NB, Methyl 2-nitrobenzoate] | about 58% | 29.5 ^b % | 15.2 ^d % | 18.7 ^b % | 5.0 ^bcd | 12.1 ^b | 19.5 ^b | 54.2 ^c % | 34.1 ^de % | 30 | 0 ^f % | 0 ^d % | 0 | 100 | 35.8 ^c % | 28.6 ^bcd % | 25.3 ^bc % | 9.1 ^abc | 10.2 ^bc | 10.0 ^bc | reduction in % viable J2 compared with the Tween control ([1]; 0.1%): 51%; % active J2 suppression compared with the Tween control (Heterodera glycines eggs; Day 7): 53%
5 | COC(=O)c1cccc(OC)c1 [M3MOB, Methyl 3-methoxybenzoate] | – | 0 ^c % | 0 ^e % | 0 ^c % | 2.0 ^cd | 2.7 ^de | 2.8 ^de | 12.2 ^d % | 10.4 ^g % | 11.1 | 0 ^f % | 0 ^d % | 0 | 100 | 0 ^e % | 0 ^f % | 6.9 ^bc % | 6.3 ^bcd | 6.4 ^bcd | 6.0 ^cd | pest or weed control at 0.1 % (Heterodera glycines eggs; Day 7): 64%
